Measurements taken from patent US11739073B2, “Aryl-n-aryl derivatives for treating a RNA virus infection” (ABIVAX, priority 2018, dated 2023).

Experiments:
[1] = system: Chikungunya Virus (CHIKV); test: Inhibition of Chikungunya virus (CHIKV) production in infected HEK293T cell line (GFP-modified virus, fluorescence); format: cell-based, CHIKV strain of La Réunion outbreak (LR2006-OPY1); conditions: HEK-293T, infected HEK293T cells; for inhibition at 1 µM: compounds at 1 μM, MOI 0.1, 22 h, values above 100 lowered to 100, read-out: % CHIKV Inhibition Mean (n = 2); for IC50: read-out: IC50 (CHIKV, second round of experiments)
Description: The ability of the compounds to inhibit viral replication was assessed with an experiment in which infected cells were treated by compounds of formula (I) at 1 μM. As a positive control for inhibition of Chikungunya, Ribavirin was used. Toxicity of the compounds was assessed in parallel.
Human embryonic kidney cells 293T (HEK293T, CRL-11268) were maintained in Dulbecco's modified Eagle's Medium (DMEM, 31966-021, Thermo Fisher Scientific) supplemented with 10% of fetal bovine serum (FBS), penicillin and streptomycin. After removal of the medium, cells were washed with Ca^2+ and Mg^2+-free salt solution to remove all traces of serum. After aspiration of wash solution, cells were dissociated with 0.25% Trypsin-EDTA solution and incubated 30 s at least in 37° C. incubator. Concentration of cell suspension was determined by an automatic cell counter (EVE, NanoEntek) and, if needed, adjusted to 0.33×10^6 cells/mL with DMEM medium supplemented with 10% FBS.
100 μL of the cell suspension were dispatched in a ViewPlate-96 Black (6005182, PerkinElmer) and in a transparent 96-well cell culture plate (655180, Greiner bio-one). After an incubation for 24 h at 37° C. under 5% of CO2, compounds were added at the proper concentration.
An intermediate dilution was prepared with DMSO (D8418, Sigma) at 2 mM in a 96-well V-bottom microplate from the stock solution:
Mix 1 μL of the 50 mM stock library in 25 μL of DMSO.
Mix 2 μL of the 25 mM stock library in 25 μL of DMSO.
An intermediate dilution was prepared with DMSO (D8418, Sigma) at 25 mM in a 96-well V-bottom microplate from the stock solution:
Mix 2 μL of the 50 mM stock library in 2 μL of DMSO.
Perform serial dilution in 2 μL of DMSO 13 times to reach 0.0015 mM. Proceed as follows in table III:
For both screen and determination of IC50, 1 μL of each solution was added in a 1 mL Masterblock 96 wells (Greiner bio-one, 780261) containing 1 mL of DMEM medium. As a positive control, 5 μL of a 80 mM Ribavirin solution (R9644, Sigma) is added to 1 mL of DMEM. On the other hand, DMSO is used as a negative control.
[…]. Vector Borne Zoonotic Dis. 2006; 6(4)). This modified virus was used to infect cells at MOI 0.1. […]. Medium was removed after 22 h at 37° C. under 5% of CO2 and cells were washed as described above. 60 μL of RIPA buffer (50 mM Tris-HCl pH8, 100 mM NaCl, 1 mM MgCl2, 1% Triton X-100) was added to cells and incubated for at least 20 min before reading fluorescence signal. Pierce 660 nm Protein Assay Reagent (22660, Thermo scientific) was used to normalize fluorescence signal by protein quantity.
CellTiter 96® AQueous One Solution Cell Proliferation Assay (MTS) (G3581, Promega) was used to check the toxicity of the compounds. We added 20 μL of MTS solution and read absorbance at 492 nm one hour later.
Results • A first round of experiments has been performed wherein the results are expressed as inhibition percentage, which is calculated as follows, through the following steps:
1. Fluorescence intensity (FI)/Absorbance 660 nm (A660)=A
This ratio allows considering the infection (GFP virus) to the protein amount.
2. A′=A—background noise of non-infected plate,
3. B=Fluorescence intensity (FI)/Absorbance 660 nm (A660) of infected but non treated plates,
4. C=A′/B, which is then converted as the percentage of infection after treatment, compared to non-treated sample, and subsequently as the […]. For instance, a value of 100 in Table IV here below means that, after treatment, the signal attributed to GFP fluorescence is abolished, which is correlated to the absence of infection.
This value corresponds to the inhibition's percentage.
The following Table IV encompasses said C′ value for some compounds, as calculated above with a mean of 2 experiments, and corresponding standard deviation.
Some values were originally above 100. In these cases, the value has been lowered to 100. This means that some molecules also have an impact on the viability of the cells. […]

DENV-2 = DENV-2 inhibition in A549 cells using Viral ToxGlo assay (cytopathic effect); format: cell-based, DENV-2 strain 16681; conditions: Dengue virus, DENV2, A549, 120 h, read-out: % DENV-2 Inhibition Mean (n = 3)
Description: Protocol for Screening Antiviral Compounds for DENV-2 Inhibition and Cytotoxicity Using Viral ToxGlo Assay
A549 cells were maintained in Dulbecco's Modified Eagle Medium (DMEM) supplemented with 10% fetal bovine serum, 100 U/ml penicillin and 100 μg/ml streptomycin. For the purposes of the screening assay they were grown to 90% confluency, trypsinized and recovered. The trypsin was neutralised with cell culture media and cells were centrifuged at 150×g for 5 minutes before discarding the supernatant and resuspending cell pellet in assay media (DMEM supplemented with 2% fetal bovine serum and 100 U/ml penicillin and 100 μg/ml streptomycin). The cells were seeded into 96-well white clear-bottomed cell culture plates at a density of 1.0×10^4 cells/well in 50 μl. For the media/background control column assay media only was added. Cell plates were placed in a humid chamber and incubated overnight at 37° C./5% CO2. After overnight incubation cells were checked for confluency and healthy appearance.
Test compounds were prepared at a final concentration of 10 μM in a maximum DMSO concentration of 1% (final assay concentration maximal 0.1% DMSO) and added to the cell plates in volumes of 10 μl. For cell control and virus control wells the test article solvent only was added. As a positive inhibition control, 7-Deaza-2′-C-methyladenosine was added at 100 μM in 3 wells. Virus (DENV-2 strain 16681) or assay media for cytotoxicity test wells and media/cell control wells was added immediately after test articles at an MOI of 0.5, 40 for 96 well plates respectively. Virus suspension was prepared by thawing DENV-2 frozen stocks and diluting to the required concentration of plaque forming units in assay media.
Cell plates were further incubated inside a humid chamber for 5 days p.i at 37° C./5% CO2. After the incubation period cells were observed under the microscope to check for characteristic cytopathic effect in virus control wells and healthy cells in the cell control wells. After plates were adjusted to room temperature 20 μl Viral ToxGlo (Promega) was added to each well of the 96-well cell plates. Plates were incubated at room temperature for 5 minutes before measuring the luminescence on a spectrophotometer (Envision, PerkinElmer).
DENV-2 inhibition was calculated as percentage of cytopathic effect inhibition relative to the virus control and cytotoxicity as percentage of cell survival relative to cell control wells.

RSV = RSV inhibition in HEp-2 cells using Viral ToxGlo assay (cytopathic effect); format: cell-based, RSV A2; conditions: human respiratory syncytial virus, HEp-2, 72 h
Description: Protocol for Screening Antiviral Compounds for RSV Inhibition and Cytotoxicity Using Viral ToxGlo Assay
HEp-2 cells were maintained in Eagle's minimum essential medium (EMEM) with Earle's BSS adjusted to contain 2 mM L-glutamine, 10% fetal bovine serum, 100 U/ml penicillin and 100 μg/ml streptomycin. For the purposes of the screening assay they were grown to 90% confluency, trypsinized and recovered. The trypsin was neutralised with cell culture media and cells were centrifuged at 150×g for 5 minutes before discarding the supernatant and resuspending cell pellet in assay media (EMEM with Earle's BSS adjusted to contain 2 mM L-glutamine, 2% fetal bovine serum and 100 U/ml penicillin and 100 μg/ml streptomycin). The cells were seeded into white clear-bottomed cell culture plates at a density of 1.5×10^4 cells/well in 50 μl and 4×10^3 cells/well in 25 μl for 96 well plates and 384 well plates respectively. For the media/background control column assay media only was added. Cell plates were placed in a humid chamber and incubated overnight at 37° C./5% CO2. After overnight incubation cells were checked for confluency and healthy appearance.
Test articles were made up at 10× test concentration in a maximum DMSO concentration of 10% (final assay concentration maximal 1% DMSO) and added to the cell plates in volumes of 10 μl for 96 well plates and 5 μl for 384 well plates. For cell control and virus control wells the test article solvent only was added. Virus or assay media for cytotoxicity test wells and media/cell control wells was added immediately after test articles at an MOI of 0.5, 40 or 20 μl for 96 and 384 well plates respectively. Virus suspension was prepared by thawing RSV A2 frozen stocks and diluting to the required concentration of plaque forming units in assay media on ice.
Cell plates were further incubated inside a humid chamber for 72 h p.i at 37° C./5% CO2. After the incubation period cells were observed under the microscope to check for characteristic cytopathic effect in virus control wells and healthy cells in the cell control wells. After plates were adjusted to room temperature 20/40 μl Viral ToxGlo (Promega) was added to each well of the 384/96 well cell plates. Plates were incubated at room temperature, protected from light on a plate rocker for 20 minutes before measuring the luminescence on a spectrophotometer (Biotek Synergy HTX).
RSV inhibition was calculated as percentage of cytopathic effect inhibition relative to the virus control and cytotoxicity as percentage of cell survival relative to cell control wells. This allowed EC50 values to be calculated for each test article where a virus inhibition or cytotoxic dose response was identified.

## CC(C)CCNC(=O)c1cccc(Nc2ccc(/C=C/c3ccccn3)cc2)c1 [Compound 1, (E)-N-isopentyl-3-((4-(2-(pyridin-2-yl)vinyl)phenyl)amino)benzamide]
[1]
  inhibition at 1 µM: 98%

## CC(C)CCNC(=O)c1ccc(Nc2ccc(/C=C/c3ccccn3)cc2)cc1 [Compound 2, (E)-N-isopentyl-4-((4-(2-(pyridin-2-yl)vinyl)phenyl)amino)benzamide]
[1]
  inhibition at 1 µM: 74%

## O=C(NCCC1CCCCC1)c1cccc(Nc2ccc(/C=C/c3ccccn3)cc2)c1 [Compound 4, (E)-N-(2-cyclohexylethyl)-3-((4-(2-(pyridin-2-yl)vinyl)phenyl)amino)benzamide]
[1]
  inhibition at 1 µM: 99%

## O=C(NCCC1CCCC1)c1cccc(Nc2ccc(/C=C/c3ccccn3)cc2)c1 [Compound 6, (E)-N-(2-cyclopentylethyl)-3-((4-(2-(pyridin-2-yl)vinyl)phenyl)amino)benzamide]
[1]
  inhibition at 1 µM: 98%
  IC50: 200 to 500 nM

## O=C(NCCC1CCC1)c1cccc(Nc2ccc(/C=C/c3ccccn3)cc2)c1 [Compound 9, (E)-N-(2-cyclobutylethyl)-3-((4-(2-(pyridin-2-yl)vinyl)phenyl)amino)benzamide]
[1]
  inhibition at 1 µM: 98%

## Cc1cc(/C=C/c2ccccn2)ccc1Nc1cccc(C(=O)NCCC2CCCC2)c1 [Compound 12, (E)-N-(2-cyclopentylethyl)-3-((2-methyl-4-(2-(pyridin-2-yl)vinyl)phenyl)amino)benzamide]
DENV-2
  inhibition at 10 µM: 96%
RSV
  EC50: 370 to 2500 nM
[1]
  IC50: 1 to 200 nM

## Cc1cc(/C=C/c2ccccn2)ccc1Nc1cccc(C(=O)NCCC(C)C)c1 [Compound 13, (E)-N-isopentyl-3-((2-methyl-4-(2-(pyridin-2-yl)vinyl)phenyl)amino)benzamide]
DENV-2
  inhibition at 10 µM: 86%
RSV
  EC50: 370 to 2500 nM
[1]
  IC50: 1 to 200 nM

## CC(C)CCNC(=O)c1cccc(Nc2ccc(C(=O)Nc3ccccn3)cc2)c1 [Compound 14, N-isopentyl-3-((4-(pyridin-2-ylcarbamoyl)phenyl)amino)benzamide]
[1]
  inhibition at 1 µM: 93%
  IC50: 200 to 500 nM

## O=C(NCCC1CCCC1)c1cccc(Nc2ccc(C(=O)Nc3ccccn3)cc2)c1 [Compound 15, N-(2-cyclopentylethyl)-3-((4-(pyridin-2-ylcarbamoyl)phenyl)amino)benzamide]
DENV-2
  inhibition at 10 µM: 107%
[1]
  inhibition at 1 µM: 98%
  IC50: 200 to 500 nM

## O=C(NCCC1CCCCC1)c1cccc(Nc2ccc(C(=O)Nc3ccccn3)cc2)c1 [Compound 16, N-(2-cyclohexylethyl)-3-((4-(pyridin-2-ylcarbamoyl)phenyl)amino)benzamide]
RSV
  EC50: 1170 nM
[1]
  inhibition at 1 µM: 100%
  IC50: 200 to 500 nM

## CC(C)CCNC(=O)c1cccc(Nc2ccc(NC(=O)c3ccccn3)cc2)c1 [Compound 32, N-(4-((3-(isopentylcarbamoyl)phenyl)amino)phenyl)picolinamide]
[1]
  inhibition at 1 µM: 99%
  IC50: 200 to 500 nM

## O=C(NCCC1CCCC1)c1cccc(Nc2ccc(NC(=O)c3ccccn3)cc2)c1 [Compound 35, N-(4-((3-((2-cyclopentylethyl)carbamoyl)phenyl)amino)phenyl)picolinamide]
DENV-2
  inhibition at 10 µM: 66%
[1]
  inhibition at 1 µM: 100%
  IC50: 200 to 500 nM

## O=C(Nc1ccccc1)c1ccc(Nc2cccc(OCCCC3CCCCC3)c2)c(C2CC2)c1 [Compound 115, 4-{[3-(3-cyclohexylpropoxy)phenyl]amino}-3-cyclopropyl-N-phenylbenzamide]
RSV
  EC50: 229 nM
